# What was measured:
# [1] = tested on: Transglutaminase 1 (TGM1) transcripts; test: Expression of TGM1 transcripts in keratinocytes (RT-qPCR); type: cell-based; conditions: human epidermic keratinocytes, 24 hours, compound at 15 μm; for TGM1 transcript expression, fold change (fc) compared to control: normalized to RPL13A and GAPDH, N=3
# Protocol: (§1) The influence of the compounds (A′) and (F), in particular obtained according to the process indicated above, on the renewal of the epidermis and on the barrier effect of the skin was evaluated in vitro by measuring the expression of TGM1 and TGM3 transcripts in keratinocytes.
# (§2) Human epidermic keratinocytes were incubated for 24 hours in the presence or not (control) of compound (A′) or (F). At the end of the incubation, total RNAs were extracted and quantified. The expression of TGM1 and TGM3 transcripts was then measured using a two-step RT-qPCR method with a LightCycler® device according to the technique of incorporation of SYBR®Green (Qiagen). The expression of these transcripts was normalized with the expression of two housekeeping genes, RPL13A and GAPDH. The experiments were reproduced 3 times (N=3).
# (§3) The results are given in Table (VI) below, fold change (fc) compared to control.
# [2] = tested on: Transglutaminase 3 (TGM3) transcripts; test: Expression of TGM3 transcripts in keratinocytes (RT-qPCR); type: cell-based; conditions: human epidermic keratinocytes, 24 hours, compound at 15 μm; for TGM3 transcript expression, fold change (fc) compared to control: normalized to RPL13A and GAPDH, N=3
# Protocol: as §1, §2, §3
# [3] = tested on: membrane transglutaminase (MTG); test: Ex vivo immunolabelling of membrane transglutaminase (MTG) in skin explants; design: species or system human; conditions: topical 2 mg per explant, compound (F) 5% in water, LHA 5% in ethanol, symbols proportional
# Protocol: (§4) The anti-ageing effect of the compound (F), in particular obtained according to the process indicated above, at 5% in water, was evaluated ex vivo by immunolabelling of the proteins collagen III, membrane transglutaminase (MTG), filaggrin and laminin-5, in comparison with LHA (lipohydroxy acid, 2-hydroxy-5-octanoylbenzoic acid) at 5% in ethanol.
# (§5) 111 explants with a diameter of approximately 10 mm were prepared from abdominal plastic surgery on a person. These explants were kept alive.
# (§6) On day […], the explants were placed on a grid in 2 ml of culture medium. […]
# (§7) At D0, D6 and D11, the explants were sampled from the culture medium and cut in two. […] The labellings were evaluated by a microscopic examination. […]
# (§8) The microscopic observations were carried out in optical microscopy and fluorescence microscopy, using a Leica microscope of Orthoplan or DMLB type. […]
# Membrane transglutaminase was labelled on frozen sections with a monoclonal antibody, clone B.C1 (Harbor Bio Product ref. 5003), at 1/100th, for 2 h at ambient temperature with a Vectastain RTU Universal, Vector, avidin/biotin amplifying system and visualized in FITC. […] The labelling was evaluated by a microscopic examination. […]
# The results obtained with the compound (F) and […] are assessed, at equivalent date, by comparison with the results obtained in the absence of treatment (control test). […]
# laminin-5 = test: Ex vivo immunolabelling of laminin-5 in skin explants; design: species or system human; conditions: topical 2 mg per explant, compound (F) 5% in water, LHA 5% in ethanol, symbols proportional
# Protocol: as §4, §5, §6, §7, §8
# Immunolabelling of Laminin-5 The labelling of laminin-5 was carried out on frozen sections with a monoclonal antibody, clone P3E4 (Santa Cruz sc-13587), at 1/300th, for 30 minutes at ambient temperature with a biotin/streptavidin amplifying system, visualized in FITC (Caltag sa1001). […] The labelling was evaluated by a microscopic examination. […]
# The results obtained with the compound (F) and LHA are assessed, at equivalent date, by comparison with the results obtained in the absence of treatment (control test). […]
SMILES,Stimulation of the expression of TGM1 transcripts (class in words) [1],"TGM1 transcript expression, fold change (fc) compared to control [1] [fc]",Stimulation of the expression of TGM3 transcripts (class in words) [2],"TGM3 transcript expression, fold change (fc) compared to control [2] [fc]","MTG expression level, difference in comparison with the control at D6 [3]","Laminin-5 expression level, difference in comparison with the control at D11 (laminin-5)"
"CCCCCCCCCCCCCCCc1cccc(O)c1C(=O)O [Compound (A′), 6-peritadecylsalicylic acid]",strong stimulation,6.0,strong stimulation,20,–,–
CCCCCCCCCCCCCCCc1cccc(O)c1C(=O)O [Compound (F)],average stimulation,1.7,good stimulation,3.0,No variation,No variation
"CCCCCCCC(=O)c1ccc(O)c(C(=O)O)c1 [LHA, 2-hydroxy-5-octanoylbenzoic acid, reference compound]",–,–,–,–,–,No variation
